# Tests used:
# GSK3β = GSK3β (Homo sapiens, UniProt P49841); test: GSK3β kinase assay (Caliper LabChip, fluoresceinated peptide substrate); type: biochemical; conditions: first value of the cell; 250 pM enzyme, 20 uM ATP, 20 hours at room temperature; read-out: GSK3β/α (nM): GSK3β IC50
# Outline: (§1)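 Reactions run 20 hours at room temperature, stopped with EDTA. Phosphorylated and unphosphorylated fluoresceinated peptide separated electrophoretically on Caliper LabChip3000. Eleven compound concentrations tested; IC50 by non-linear regression.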
# GSK3α = GSK3α (Homo sapiens, UniProt P49840); test: GSK3α kinase assay (Caliper LabChip, fluoresceinated peptide substrate); type: biochemical
# Outline: as §1
# pTau = pTau assay (no method described); type: cell-based
# GSK3β, sequence (P49841 whole entry, species assumed): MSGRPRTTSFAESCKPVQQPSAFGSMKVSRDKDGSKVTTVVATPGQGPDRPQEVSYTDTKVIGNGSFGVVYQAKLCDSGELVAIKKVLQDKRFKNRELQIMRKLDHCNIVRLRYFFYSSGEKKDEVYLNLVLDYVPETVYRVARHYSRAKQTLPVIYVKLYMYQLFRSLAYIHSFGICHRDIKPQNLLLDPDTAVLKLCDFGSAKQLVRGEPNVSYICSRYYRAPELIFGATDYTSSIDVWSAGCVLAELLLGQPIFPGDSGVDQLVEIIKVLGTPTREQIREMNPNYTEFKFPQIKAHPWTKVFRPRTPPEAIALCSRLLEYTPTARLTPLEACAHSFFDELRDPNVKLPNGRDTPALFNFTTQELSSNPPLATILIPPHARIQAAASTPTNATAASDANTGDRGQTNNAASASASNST
# GSK3α, sequence (P49840 whole entry, species assumed): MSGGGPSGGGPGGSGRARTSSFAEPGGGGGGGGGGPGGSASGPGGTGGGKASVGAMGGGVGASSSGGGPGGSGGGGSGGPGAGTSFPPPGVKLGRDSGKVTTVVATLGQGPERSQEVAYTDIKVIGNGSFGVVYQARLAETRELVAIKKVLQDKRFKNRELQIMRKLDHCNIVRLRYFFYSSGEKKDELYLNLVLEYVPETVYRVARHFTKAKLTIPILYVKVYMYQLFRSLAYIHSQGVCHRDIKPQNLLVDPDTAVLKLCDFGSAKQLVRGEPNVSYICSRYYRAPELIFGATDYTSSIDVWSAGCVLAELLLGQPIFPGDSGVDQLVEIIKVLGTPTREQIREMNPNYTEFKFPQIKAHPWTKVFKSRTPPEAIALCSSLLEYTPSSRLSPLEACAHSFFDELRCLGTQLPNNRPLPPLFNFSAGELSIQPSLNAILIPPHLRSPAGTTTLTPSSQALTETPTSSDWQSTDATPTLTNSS
SMILES,IC50 (GSK3β) [nM],IC50 (GSK3α) [nM],IC50 (pTau) [nM]
"CC1(c2cc(F)ncc2NC(=O)c2ccnc(Nc3ccc(C(F)(F)F)cn3)c2)OCCO1 [Example 82, N-(6-Fluoro-4-(2-methyl-1,3-dioxolan-2-yl)pyridin-3-yl)-2-((5-(trifluoromethyl)pyridin-2-yl)amino)isonicotinamide]",7.1,1.9,230
"CC(C)C1(c2cc(Cl)ncc2NC(=O)c2ccnc(Nc3ccc(C(F)(F)F)cn3)c2)OCCO1 [Example 83, N-(6-Chloro-4-(2-isopropyl-1,3-dioxolan-2-yl)pyridin-3-yl)-2-((5-(trifluoromethyl)pyridin-2-yl)amino)isonicotinamide]",1.1,0.55,57
"CC1(c2cc(OCCO)ncc2NC(=O)c2ccnc(Nc3ccc(C(F)(F)F)cn3)c2)OCCO1 [Example 84, N-(6-(2-Hydroxyethoxy)-4-(2-methyl-1,3-dioxolan-2-yl)pyridin-3-yl)-2-((5-(trifluoromethyl)pyridin-2-yl)amino)isonicotinamide]",9.2,5,350
"CC[C@@]1(c2cc(Cl)ncc2NC(=O)c2ccnc(Nc3ccc(C(F)(F)F)cn3)c2)OC[C@@H](C(F)(F)F)O1 [Example 85, N-(6-Chloro-4-((2R,4S)-2-ethyl-4-(trifluoromethyl)-1,3-dioxolan-2-yl)pyridin-3-yl)-2-((5-(trifluoromethyl)pyridin-2-yl)amino)isonicotinamide]",64,35,5500
"CC[C@@]1(c2cc(Cl)ncc2NC(=O)c2ccnc(Nc3ccc(C(F)(F)F)cn3)c2)OC[C@H](C(F)(F)F)O1 [Example 86, N-(6-Chloro-4-((2R,4R)-2-ethyl-4-(trifluoromethyl)-1,3-dioxolan-2-yl)pyridin-3-yl)-2-((5-(trifluoromethyl)pyridin-2-yl)amino)isonicotinamide]",12,2.4,510
"O=C(Nc1cnc(Cl)cc1C1(C2CC2)OCCO1)c1ccnc(Nc2ccc(C(F)(F)F)cn2)c1 [Example 87, N-(6-Chloro-4-(2-cyclopropyl-1,3-dioxolan-2-yl)pyridin-3-yl)-2-((5-(trifluoromethyl)pyridin-2-yl)amino)isonicotinamide]",0.04,0.17,6.6
"CCCC1(c2cc(Cl)ncc2NC(=O)c2ccnc(Nc3ccc(C(F)(F)F)cn3)c2)OCCO1 [Example 88, N-(6-Chloro-4-(2-propyl-1,3-dioxolan-2-yl)pyridin-3-yl)-2-((5-(trifluoromethyl)pyridin-2-yl)amino)isonicotinamide]",0.69,0.23,80
"CC[C@@]1(c2cc(Cl)ncc2NC(=O)c2ccnc(Nc3ccc(C(F)(F)F)cn3)c2)OC[C@H](C)O1 [Example 89, N-(6-Chloro-4-((2R,4S)-2-ethyl-4-methyl-1,3-dioxolan-2-yl)pyridin-3-yl)-2-((5-(trifluoromethyl)pyridin-2-yl)amino)isonicotinamide]",1.6,1.7,340
"CC[C@@]1(c2cc(Cl)ncc2NC(=O)c2ccnc(Nc3ccc(C(F)(F)F)cn3)c2)OC[C@@H](C)O1 [Example 90, N-(6-Chloro-4-((2R,4R)-2-ethyl-4-methyl-1,3-dioxolan-2-yl)pyridin-3-yl)-2-((5-(trifluoromethyl)pyridin-2-yl)amino)isonicotinamide]",2,0.94,150
"COc1cc(C2(C)OCCO2)c(NC(=O)c2ccnc(Nc3ccc(C(F)(F)F)cn3)c2)cn1 [Example 91, N-(6-Methoxy-4-(2-methyl-1,3-dioxolan-2-yl)pyridin-3-yl)-2-((5-(trifluoromethyl)pyridin-2-yl)amino)isonicotinamide]",3.9,20,1200

# — patent publication US9718804B2, “GSK-3 inhibitors” (BRISTOL-MYERS SQUIBB COMPANY, priority 2013, dated 2017)
